Assay results from the supplement of paper PMC10307832.

How the values were obtained:
Experiment in all cases: relative viability (nuclei count vs DMSO), 5 days (fraction); higher = more cells survive
[1] = compound: CC(C)N(CCCNC(=O)Nc1ccc(C(C)(C)C)cc1)C[C@H]1O[C@@H](n2ccc3c(N)ncnc32)[C@H](O)[C@@H]1O + Nc1ncn([C@H]2C[C@H](O)[C@@H](CO)O2)c(=O)n1 [Decitabine] (partner 2 µM)
Method in brief: (§1)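 Values are medians from duplicate plates. Each reflects relative viability, defined as the nuclei count of treated wells over that of vehicle wells. Lung cancer cell lines in 1536-well plates were pin-tool dosed one day after seeding with one drug alone or with a fixed anchor-drug dose plus five library-drug doses (not always all listed) in √10 steps, then fixed, stained and imaged at 4× after 5 days.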

Shikonin + Lapatinib = compound: CC(C)=CC[C@@H](O)C1=CC(=O)c2c(O)ccc(O)c2C1=O [Shikonin] + CS(=O)(=O)CCNCc1ccc(-c2ccc3ncnc(Nc4ccc(OCc5cccc(F)c5)c(Cl)c4)c3c2)o1 [Lapatinib] (partner 2 µM)
Method in brief: as §1

[2] = compound: CC(C)N(CCCNC(=O)Nc1ccc(C(C)(C)C)cc1)C[C@H]1O[C@@H](n2ccc3c(N)ncnc32)[C@H](O)[C@@H]1O + Cc1cc(Nc2cc(N3CCN(C)CC3)nc(Sc3ccc(NC(=O)C4CC4)cc3)n2)n[nH]1 [Tozasertib] (partner 0.1 µM)
Method in brief: as §1

Shikonin + Olaparib = compound: CC(C)=CC[C@@H](O)C1=CC(=O)c2c(O)ccc(O)c2C1=O [Shikonin] + O=C(c1cc(Cc2n[nH]c(=O)c3ccccc23)ccc1F)N1CCN(C(=O)C2CC2)CC1 [Olaparib] (partner 8 µM)
Method in brief: as §1

| Cell Line | relative viability ([1]; first compound 0.08 µM) | relative viability ([1]; first compound 0.253 µM) | relative viability ([1]; first compound 2.53 µM) | relative viability ([1]; first compound 8 µM) | relative viability (Shikonin + Lapatinib; first compound 0.01 µM) | relative viability (Shikonin + Lapatinib; first compound 0.1 µM) | relative viability (Shikonin + Lapatinib; first compound 0.3162 µM) | relative viability (Shikonin + Lapatinib; first compound 1 µM) | relative viability ([2]; first compound 0.08 µM) | relative viability ([2]; first compound 0.253 µM) | relative viability ([2]; first compound 0.8 µM) | relative viability ([2]; first compound 2.53 µM) | relative viability ([2]; first compound 8 µM) | relative viability (Shikonin + Olaparib; first compound 0.01 µM) | relative viability (Shikonin + Olaparib; first compound 0.1 µM) | relative viability (Shikonin + Olaparib; first compound 0.3162 µM) | relative viability (Shikonin + Olaparib; first compound 1 µM) | relative viability ([1]; first compound 0.8 µM) |
| --- | --- | --- | --- | --- | --- | --- | --- | --- | --- | --- | --- | --- | --- | --- | --- | --- | --- | --- |
| 201T | 0.841 | 0.889 | 0.876 | 0.844 | 1.05 | 1.12 | 1.02 | 1.05 | 0.871 | 0.896 | 0.974 | 0.898 | 0.902 | 0.843 | 0.893 | 0.869 | 0.951 |  |
| A549 | 0.278 | 0.292 | 0.215 | 0.189 | 1.08 | 1.09 | 1.03 | 1.1 |  |  |  |  |  | 0.351 | 0.454 | 0.305 | 0.302 | 0.291 |
| A-427 | 0.556 | 0.535 | 0.541 | 0.568 | 1.05 | 1.37 | 0.967 | 1.14 | 0.2 | 0.208 | 0.193 | 0.204 | 0.206 | 0.802 | 0.872 | 0.708 | 0.795 | 0.568 |
| ABC-1 | 1.03 | 1.23 | 1.15 | 1.32 | 1.5 | 1.28 | 1.27 | 1.2 | 0.183 | 0.174 |  | 0.183 | 0.178 | 0.78 | 0.894 | 0.948 | 0.637 |  |
| BEN | 0.602 | 0.596 | 0.717 | 0.678 | 0.654 | 0.897 | 0.776 | 0.768 | 0.49 | 0.642 | 0.485 | 0.532 | 0.452 | 1.08 | 1.03 | 1.02 | 1.01 | 0.739 |
| CAL-12T |  |  |  |  | 0.636 | 0.632 | 0.649 | 0.638 | 0.326 | 0.315 | 0.309 | 0.293 | 0.29 | 0.767 | 0.849 | 0.789 | 0.639 |  |
| COR-L23 | 0.46 | 0.33 | 0.48 | 0.456 | 1.03 | 1.07 | 1.13 | 1.05 | 0.208 | 0.195 | 0.256 | 0.23 | 0.201 | 0.401 | 0.306 | 0.307 | 0.24 | 0.467 |
| COR-L 105 | 0.631 | 0.67 | 0.638 | 0.694 | 0.339 | 0.346 | 0.318 | 0.36 | 0.357 | 0.357 | 0.331 | 0.336 | 0.316 | 0.672 | 0.796 | 0.558 | 0.606 | 0.736 |
| Calu-6 |  |  |  |  | 1.16 | 1.34 | 1.11 | 1.16 |  |  |  |  |  | 0.6 | 0.695 | 0.556 | 0.356 |  |
| ChaGo-K-1 | 0.468 | 0.545 | 0.522 | 0.505 |  |  |  |  | 0.242 | 0.245 | 0.222 | 0.209 | 0.23 | 0.425 | 0.438 | 0.387 | 0.462 | 0.494 |
| EBC-1 |  |  |  |  | 0.19 | 0.191 | 0.213 | 0.217 |  |  |  |  |  | 0.764 | 0.698 | 0.758 | 0.602 |  |
| EKVX | 0.342 | 0.339 | 0.36 | 0.351 | 0.18 | 0.202 | 0.214 | 0.19 | 0.449 | 0.347 | 0.373 | 0.434 | 0.388 | 0.922 | 0.907 | 0.889 | 0.798 | 0.327 |
| EMC-BAC-2 | 0.939 | 1.02 | 1.09 | 0.96 | 0.939 | 0.999 | 0.941 | 0.923 | 0.287 | 0.314 | 0.285 | 0.275 | 0.275 | 0.484 | 0.562 | 0.486 | 0.427 | 1.07 |
| EPLC-272H | 0.366 | 0.381 | 0.413 | 0.39 | 0.869 | 1.2 | 1.08 | 1.22 | 0.315 | 0.215 | 0.287 | 0.217 | 0.244 | 0.553 | 0.63 | 0.57 | 0.586 | 0.368 |
| H3255 | 0.613 | 0.645 | 0.626 | 0.511 | 0.206 | 0.258 | 0.215 | 0.271 | 0.735 | 0.473 | 0.466 | 0.457 | 0.609 | 0.552 | 0.542 | 0.597 | 0.509 | 0.491 |
| HARA | 0.556 | 0.545 | 0.457 | 0.495 | 0.888 | 0.903 | 0.853 | 0.77 | 0.097 | 0.13 | 0.109 | 0.0913 | 0.0981 | 0.557 | 0.7 | 0.492 | 0.574 | 0.62 |
| HCC-15 | 0.655 | 0.592 | 0.646 | 0.544 | 0.945 | 0.996 | 0.918 | 0.919 | 0.354 | 0.542 | 0.369 | 0.401 | 0.337 | 0.796 | 0.735 | 0.722 | 0.669 | 0.65 |
| HCC-44 | 0.979 | 1.01 | 0.966 | 0.915 | 1.07 | 1.07 | 1.05 | 1.09 | 0.99 | 1.11 | 0.869 | 1.01 | 1.04 | 0.963 | 1.01 | 1.07 | 0.993 | 0.714 |
| HCC-78 | 0.783 | 0.667 | 0.707 | 0.777 | 0.778 | 1.07 | 0.705 | 1.06 | 0.371 | 0.383 | 0.351 | 0.366 | 0.484 | 0.911 | 0.753 | 0.964 | 0.755 | 0.667 |
| HCC-366 | 0.359 | 0.335 | 0.294 | 0.352 | 1.34 | 1.24 | 1.11 | 1.03 | 0.0971 | 0.163 | 0.157 | 0.0768 | 0.103 | 0.423 | 0.428 | 0.33 | 0.404 | 0.317 |
